Assay [1] relates to HepG2 cells. The experiment in a line: Transwell migration assay. The class given is cell-based. Conditions: Homo sapiens, 48 h, vs ethanol control, read-out: inhibition of cell migration. As for the experimental part:
The transwell migration and invasion experiments were conducted using a 24-well plate (cat# 3422, Corning). HepG2 and SMMC-7721 cells (5 × 10^4) were suspended in 100 µL of medium supplied with ethanol, 150 and 300 µM of BCP and added to the top chamber, while 600 µL of complete medium containing 10% FBS was added into the lower chamber. After 48 h of incubation at 37°C, the cells from the top chamber were carefully removed using a cotton swab, while the cells penetrated through the membrane were fixed using 600 µL of 70% methanol for 15 min. To stain the cells, 600 µL of 0.2% crystal violet was used to treat the Transwell inserts for 10 min, followed by washing and drying, and the membranes of the inserts were photographed using an inverted microscope (Leica DM13000 B). The positive staining area was calculated using ImageJ software.

Assay [2] has as its system HepG2 cells. The experiment in a line: RT-qPCR of MAPK signaling pathway genes. In kind it is cell-based, human. Conditions: BCP-treated HepG2 cells vs control cells. As for the experimental part:
HepG2 cells were treated by 150 µM BCP or ethanol for 24 h, followed by total RNA extraction using the TRIzol reagent (Thermo Fisher Scientific, cat#15596026). The quality and concentration of RNA were examined by MOPS RNA electrophoresis and Eppendorf BioSpectrometer. The transcriptome analysis was performed by BGI-Wuhan China. The RNA-seq dataset of this study is accessible in the Gene Expression Omnibus (GEO) with an access number of GSE276099. The sequence library for each sample was prepared using the BGISEQ-500 platform with a 50-bp single-end (SE50) format. HISAT (v2.2.1) was used to align the clean reads to the reference genome and alignment of the clean reads to the reference genes was carried out using Bowtie2 (v2.4.5) ([Langmead and Salzberg, 2012]; [Kim et al., 2015]). Gene expression levels were calculated by RSEM (v1.3.1) ([Li and Dewey, 2011]). Analysis of differential gene expression was performed using edgeR in the Bioconductor software package ([Robinson et al., 2010]). Using a standard protocol, the RNA samples were also examined by reverse transcription and quantitative polymerase chain reaction (RT-qPCR). In brief, for reverse transcription, total RNA (1 μg) and gDNA wiper Mix were incubated at 42°C for 2 min. The samples were immediately incubated with a master mix containing 10 pmol/μL of poly (dT) primers at 37°C for 15 min and 85°C for 5 s. […]

Assay [3] concerns HepG2 cells. The experiment in a line: Colony formation assay with ectopic PGF expression. The class given is cell-based, human. The source says:
The placental growth factor (PGF) coding sequence was amplified using gene specific primers and then subcloned into a lentiviral vector pSL4-Flag expressing the puromycin resistance gene to generate pSL4-Flag-PGF vector with a CMV promoter driving PGF expression. The primers used to amplify the PGF coding sequence, check the amplified DNA fragment and verify its ectopic expression are listed in Supplementary Table S1. Lentiviruses carrying pSL4-Flag-PGF and an empty pSL4-Flag vector were produced and used to infect HCC cells based on our previously reported procedure ([Wan et al., 2012]). Ectopic PGF expression was achieved by infecting HCC cells with pSL4-Flag-PGF lentivirus, and the control cells were produced by infecting HCC cells using lentivirus carrying the empty pSL4-Flag-vector.
HepG2 cells were cultured overnight into 12-well plates with a density of 1×10^3 cells/well. The cells were then individually infected by pSL4-Flag-vector and pSL4-Flag-PGF lentiviruses. After 24 h, the cells were cultured in a complete medium containing 150 µM of BCP or an equal volume of ethanol for 10 days. The plates were washed using ice-cold PBS three times and cells were fixed using 70% ice-cold methanol for 20 min. […] The stained wells were photographed and clonogenicity was analyzed using ImageJ software.

Regarding `C=C1CC/C=C(\C)CC[C@@H]2[C@@H]1CC2(C)C` [BCP, β-caryophyllene], in the assay on HepG2 cells [1] (HepG2, 150 µM), the inhibition at 150 µM worked out at 49%. Moreover, in the assay on HepG2 cells [1] (HepG2, 300 µM), the inhibition at 300 µM stood at 75.6%. Also, the “RT-qPCR verification of differential expression of NR4A1, CSF1R, PGF, ARTN, CACNA1E” value in the assay on HepG2 cells [2] is “confirmed”. The colony formation result is reported as “significantly decreased colonies” in the assay on HepG2 cells [3] (HepG2 carrying pSL4-vector, 150 µM BCP 10 days, compared to control without BCP) and “more colonies” in the assay on HepG2 cells [3] (HepG2 expressing ectopic PGF vs empty vector, same BCP treatment (150 µM, 10 days)).

These data come from paper PMC11671526, “β-caryophyllene sensitizes hepatocellular carcinoma cells to chemotherapeutics and inhibits cell malignancy through targeting MAPK signaling pathway” (Frontiers in Pharmacology, 2024).
